As usually defined, the solubility is the concentration that dissolves in the medium under given conditions. Higher therefore signals much dissolved substance. As usually defined, the inhibition is the change of the read-out against control, counted positive when it falls. For orientation: EC50 means the concentration that produces a half-maximal response.

The source of these data is patent US8067456B2 (AEterna Zentaris GmbH, priority 2004, dated 2011).

In brackets after ≈: the same amount, converted by molar mass. Read-outs that look alike come from different tables or passages of the source.

Data set [1] is described as follows: Saturation solubility in water. The data set is classed as physicochemical. As to conditions: maximum of 1% DMSO added, HPLC UV; for solubility: water, thermodynamic from solid. On the procedure:
The saturation solubility in water was determined in accordance with the following description: to initiate dissolving of the substances and to improve the wetting of the samples, a maximum of 1% DMSO was added. The content was checked by using an HPLC UV method.

Data set [2] deals with LHRH-stimulated LH secretion from rat pituitary cells. Description: Inhibition of LHRH-induced LH secretion from rat pituitary cells in vitro. Type of data set: cell-based. On the procedure: The LH concentration in cell culture supernatants was measured using the rat luteinizing hormone (rLH) enzyme immunoassay (EIA) system ELISA (RPN 2562) from Amersham Pharmacia Biotech. All other chemicals used were from commercial sources in the highest purity available.
Juvenile male Wistar rats (Harlan Winkelmann, Germany) were sacrificed by decapitation, and the pituitaries were removed and taken up in Hanks' buffer (HBSS) with 0.3% BSA and 10 mM HEPES (pH 7.4). Pituitaries from 20 rats were required to carry out one experiment. The cells of the anterior lobe of the pituitary were separated from the remaining tissue by incubation in Hanks' buffer with 10 mM HEPES (pH 7.4), 0.3% BSA, 1 mg/ml hyaluronidase (type VIII), 1 mg/ml soybean trypsin inhibitor, 10 μg/ml DNAsel and 1 mg/ml papain at 37° C. for 30 minutes A sterile Pasteur pipette was used to disperse the cells, and they were subsequently pelleted by centrifugation. The cells were seeded in a density of 2.5×10^5 cells/well of a collagen-coated 48-well plate (Becton Dickinson) in DMEM medium (Invitrogen Life Technologies, Germany) with 10% fetal calf serum (FCS; Invitrogen Life Technologies, Germany), 10 mill nonessential amino acids and 10 mill Pen/Strep (penicillin/streptomycin).
The medium was changed after incubation at 37° C., 5% CO2 and 95% humidity for 48 h. The medium was replaced by LHRH-containing (10 nM) medium or medium with LHRH (10 nM) and test substance in the concentration indicated (table). After a further incubation for 3 hours, the cell supernatant was harvested and frozen at −20° C. The LH content was determined by means of ELISA in triplicate determination in accordance with the manufacturer's (Amersham Pharmacia Biotech) instructions.
In the following table, “% Inhibition” describes the quotient of LHRH-stimulated LH secretion with (“LH (ng/ml)” and without the addition of the test substance. The values originate from different, independent experiments.

Another data set concerns the target T1, rat LHRH receptor (Rattus norvegicus, UniProt P30969).
T1 construct: expressed in transfected cells; host or cells: LTK cells (mouse fibroblasts, ATCC CCL-1.3)
T1 sequence (P30969 1-327): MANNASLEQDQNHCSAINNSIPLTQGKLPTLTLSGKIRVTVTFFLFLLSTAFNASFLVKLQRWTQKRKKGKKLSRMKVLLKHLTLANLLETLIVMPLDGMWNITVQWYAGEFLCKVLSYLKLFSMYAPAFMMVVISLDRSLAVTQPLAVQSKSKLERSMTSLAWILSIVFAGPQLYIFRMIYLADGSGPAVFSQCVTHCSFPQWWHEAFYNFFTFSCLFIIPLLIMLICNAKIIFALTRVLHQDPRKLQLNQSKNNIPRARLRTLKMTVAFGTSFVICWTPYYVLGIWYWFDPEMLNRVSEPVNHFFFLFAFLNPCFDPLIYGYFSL
The data set is described as follows: LHRH receptor-ligand binding assay (transfected LTK cells). As to conditions: LTK cells transfected with rat LHRH receptor, 125I-triptorelin tracer, 37° C., 60 min; read-out: Binding to r-LHRHR EC50. On the procedure:
^125I-Triptorelin [^125I-(D)-Trp6-GnRH] was purchased from Biotrend (Cologne, Germany).
The specific activity was in each case 2.13 Ci/mmol.
LTK cells (mouse fibroblasts: ATCC No. CCL-1.3) which have been transfected with the rat LHRH receptor are cultivated in DMEM medium (Invitrogen Life Technologies, Germany) with penicillin (100 I.U./ml), streptomycin (0.1 mg/ml) and glutamine (0.01 mol/l) and 10% fetal calf serum (FCS; Invitrogen Life Technologies, Germany) on plastic tissue culture plates (Nunc, Germany, 245×245-20 mm).
80% confluent cell culture plates are washed twice with 50 ml of phosphate-buffered saline (PBS) and then detached with 0.01 M EDTA solution. The cells are pelleted by centrifugation at 200·g for 5 min in a laboratory centrifuge (Kendro, Germany). The cell pellet is resuspended in 3 ml of binding medium (DMEM; 10 mM Hepes; 0.5% BSA; 0.1% […]; 1 g/l bacitracin (add fresh, stock 100×); 0.1 g/l SBTI (add fresh, stock 1000×) and the cell count is determined by Trypan blue staining in a Neubauer counting chamber. The cell suspension is adjusted with binding medium to a concentration of 5×10^5 cells/0.05 ml.
Binding studies for competition plots are carried out as duplicates. The test substances are employed as 10 mM DMSO solutions. They are diluted to 4 times the final concentration employed with binding medium. 25 μl of the substance dilution are mixed with 25 μl of tracer solution (^125I-triptorelin or ^125I-cetrorelix). The tracer concentration is adjusted to approx. 50 000 cpm (measured in a Cobra II, γ counter. PE Liefe Science, Germany) in the final reaction volume of 100 μl.
200 μl of silicone/liquid paraffin mixture (84%:16%) are introduced into 650 μl conical tubes (Roth. Germany). 50 μl of the cell suspension are pipetted thereon, followed by 50 μl of the test substance/tracer mixture. The tubes are capped and incubated with vertical rotation in an incubator at 37° C. for 60 min. After incubation, the samples are centrifuged in a centrifuge (Kendro, Germany) at 900 rpm and subsequently shock-frozen in liquid N2. The tip with the cell pellet is cut off and transferred into prepared counting vials (Roth, Germany). The remainder of the conical tube with the remaining supernatant is likewise transferred into a counting vial. The measurement takes place in a γ counter for 1 min/sample.
Evaluation of the samples takes place after calculation of the specific binding compared with untreated cells, after subtraction of the nonspecific binding (excess of unlabeled ligand, 1 μM) by means of GraphPad Prism or alternatively by means of OMMM software.

The target in a further data set is T2, LHRH receptor (Rattus norvegicus, UniProt P30969).
T2 construct: rat pituitary cells which naturally strongly express the LHRH receptor; from tissue; host or cells: rat pituitary cells (membrane preparation)
T2 sequence (P30969 1-327): T1 sequence (P30969 1-327)
The data set is described as follows: LHRH receptor-ligand binding assay (membrane preparations from rat pituitary cells). As to conditions: competition with 0.05 nM [125I][D-Trp6]-LHRH, 90 min, 4° C., rat pituitary membranes. On the procedure: Heterologous competition experiments were carried out using membrane preparations from rat pituitary cells which naturally strongly express the LHRH receptor. The ligand used in this case was [^125I][D-Trp^6]-LHRH in a concentration of 0.05 nM. Unlabeled [D-Trp^6]-LHRH was used in a concentration of 1 μM, or the test substance was used in the desired concentration, for competition. After an incubation time of 90 minutes at 4° C., the bound ligand was measured by scintillation (Halmos et al., Proc. Natl. Acad. Sci. USA, 1996, 93, 2398).
The result obtained was the percentage proportion of bound ligand in the presence of the competitor related to the specifically bound proportion of the control (see result for selected compounds in Table 3). EC50 values were calculated by nonlinear regression analysis of the competition plots.

Data set [3] can be described thus: Metabolic stability in human liver microsomes. Type of data set: in vitro ADME. As to conditions: 1 μM, 37° C., NADPH. On the procedure:
The metabolic stability in relation to liver microsomes (species human, rat) was determined in accordance with the following description: the substances were incubated at a test concentration of 1 […] An HPLC MS/MS method was subsequently used to quantify the unmetabolized amount of starting compound relative to 100%.

The mark [4] stands for this setting: test substance 3.3 × 10^−8 M, LHRH 10 nM, 3 hours.

Turning to `CCC(C)C(NC(=O)C1(NC(=O)C(CCc2ccc(O)cc2)NC(=O)OCc2ccccc2)CCc2[nH]c3c(Cl)cc(Cl)cc3c2C1)C(N)=O` (stereo not drawn) [Example 303 from WO 03/051837 A2, Benzyl [1-[3-(1-carbamoyl-2-methylbutylcarbamoyl)-6,8-dichloro-2,3,4,9-tetrahydro-1H-carbazol-3-ylcarbamoyl]-3-(4-hydroxyphenyl)propyl]carbamate, reference compound], the solubility in data set [1] is 0.35 µg/mL (≈ 0.484 µM).

In the case of `CCC(C)[C@H](NC(=O)[C@@]1(NC(=O)[C@H](CCc2ccc(O)cc2)NC(=O)OCc2ccccc2)CCc2[nH]c3c(Cl)cc(Cl)cc3c2C1)C(N)=S` (stereo partly drawn) [Compound 10, benzyl[(S)-1-[(R)-6,8-dichloro-3-((S)-2-methyl-1-thiocarbamoylbutylcarbamoyl)-2,3,4,9-tetrahydro-1H-carbazol-3-ylcarbamoyl]-3-(4-hydroxyphenyl)propyl]carbamate], the inhibition at 0.033 µM in data set [2] (Rattus norvegicus, test substance 3.3 × 10^−8 M, LHRH 10 nM, 3 hours, read-out: % Inhibition) is 39%. The molecule further registered an inhibition at 0.0033 µM in data set [2] (Rattus norvegicus, test substance 3.3 × 10^−9 M, LHRH 10 nM, 3 hours) of 0%. The “LH (ng/ml) ± SD” value in data set [2] (setting [4]) was 118.7 ± 11.6 ng/mL; in data set [2] (test substance 3.3 × 10^−9 M, LHRH 10 nM, 3 hours) it was 198.8 ± 4.2 ng/mL. Also, the EC50 at rat LHRH receptor is 7.5 nM.

`CCC(C)[C@H](NC(=O)[C@@]1(NC(=O)[C@@H](NC(=O)Cc2ccccc2F)C(C)CC)CCc2[nH]c3c(C(F)(F)F)cccc3c2C1)C(N)=O` (stereo partly drawn) [Compound 75, (R)-3-{(S)-2-[2-(2-fluorophenyl)acetylamino]-3-methylpentanoylamino}-8-trifluoromethyl-2,3,4,9-tetrahydro-1H-carbazole-3-carboxylic acid ((S)-1-carbamoyl-2-methylbutyl)amide]: a half-maximal effect at LHRH receptor (EC50) was put at 0.59 nM.

At LHRH receptor, `CCC(C)[C@H](NC(=O)[C@@]1(NC(=O)[C@@H](NC(=O)OCc2ccc(F)cc2)C(C)CC)CCc2[nH]c3c(Cl)cc(Cl)cc3c2C1)C(N)=O` (stereo partly drawn) [Compound 48, 4-fluorobenzyl {(S)-1-[(R)-3-((S)-1-carbamoyl-2-methylbutylcarbamoyl)-6,8-dichloro-2,3,4,9-tetrahydro-1H-carbazol-3-ylcarbamoyl]-2-methylbutyl}carbamate] displayed an EC50 of 8 nM.

Regarding `CCC(C)[C@H](NCCc1ccc(F)cc1)C(=O)N[C@]1(C(=O)N[C@H](C(N)=S)C(C)CC)CCc2[nH]c3c(Cl)cc(F)cc3c2C1` (stereo partly drawn) [Compound 67, (R)-8-chloro-6-fluoro-3-{(S)-2-[2-(4-fluorophenyl)ethylamino]-3-methylpentanoylamino}-2,3,4,9-tetrahydro-1H-carbazole-3-carboxylic acid ((S)-2-methyl-1-thiocarbamoylbutyl)amide], the concentration for a half-maximal effect (EC50) at LHRH receptor came out at 6.9 nM.

For the molecule `CCC(C)C(NC(=O)OCc1ccccc1)C(=O)NC1(C(=O)NC(C(N)=O)C2CCCCC2)CCc2[nH]c3c(Cl)cc(Cl)cc3c2C1` (stereo not drawn) [Example 300 from WO 03/051837 A2, reference compound], the “Saturation solubility in water” value in data set [1] turned out to be 0.38 µg/mL.

In data set [1], `CC[C@H](C)[C@H](NC(=O)[C@@]1(NC(=O)[C@H](Cc2ccc(OP(=O)(O)O)cc2)NC(=O)OCc2ccccc2)CCc2[nH]c3c(Cl)cc(Cl)cc3c2C1)C(N)=O` [Compound 9] returned a solubility of 151 µg/mL (≈ 191 µM).

Take `CCC(C)[C@H](NC(=O)[C@@]1(NC(=O)[C@@H](NC(=O)Cc2ccccc2F)C(C)CC)CCc2[nH]c3c(Cl)cc(Cl)cc3c2C1)C(N)=O` (stereo partly drawn) [Compound 4, (R)-6,8-dichloro-3-{(S)-2-[2-(2-fluorophenyl)acetylamino]-3-methylpentanoylamino}-2,3,4,9-tetrahydro-1H-carbazole-3-carboxylic acid ((S)-1-carbamoyl-2-methylbutyl)amide]: in data set [2] (Rattus norvegicus, 3 h), the inhibition at 0.033 µM was found to be 67%. The “LH (ng/ml) ± SD” value in data set [2] (setting [4]) stood at 79.3 ± 5.7 ng/mL. Also, the EC50 on rat LHRH receptor was found to be 4.8 nM.

For the molecule “benzyl[(S)-1-[(R)-3-((S)-carbamoyl-2-methylbutylcarbamoyl)-6,8-dichloro-2,3,4,9-tetrahydro-1H-carbazol-3-ylcarbamoyl]-3-(4-phosphonooxyphenyl)propyl]-carbamate [Compound 11]”, the “Metabolic stability (human) [1 h, % recovery]” value in data set [3] was 77%. Moreover, on rat LHRH receptor, the EC50 turned out to be 17.2 nM. Also, the “Saturation solubility in water” value in data set [1] was 39.9 µg/mL.

Regarding `CCC(C)[C@H](NC(=O)Cc1ccc(F)cc1F)C(=O)N[C@]1(C(=O)N[C@H](C(N)=S)C(C)CC)CCc2[nH]c3c(Cl)cc(F)cc3c2C1` (stereo partly drawn) [Compound 66, (R)-8-chloro-3-{(S)-2-[2-(2,4-difluorophenyl)acetylamino]-3-methylpentanoylamino}-6-fluoro-2,3,4,9-tetrahydro-1H-carbazole-3-carboxylic acid ((S)-2-methyl-1-thiocarbamoylbutyl)amide], on LHRH receptor, a half-maximal effect (EC50) was put at 0.72 nM.
